Assay results published in article PMC6342991, “Effects of point mutations in the binding pocket of the mouse major urinary protein MUP20 on ligand affinity and specificity” (Scientific Reports, 2019).
Where a chain is given by its changes, count along the chain named. Values joined by “and” are separate entries in the source; they are usually repeats but may differ in a detail not shown here. Equal values may be shown once. “Also recorded” adds a separate entry of the source. Read-outs that look alike come from different tables or passages of the source.

Experiments:
wild type MUP20 [1] = target: T1, wild type MUP20 (Mus musculus, UniProt Q5FW60); experiment: Isothermal titration calorimetry, wild type MUP20; format: binding; settings: for Kd: one-site binding model, 25 °C, 50 mM Tris HCl pH 7.4, read-out: Equilibrium dissociation constant Kd (ITC), WT
T1 construct: 6xHis (N); made in house; host or cells: E. coli BL21(DE3), pET5b
T1 sequence (Q5FW60 20-181): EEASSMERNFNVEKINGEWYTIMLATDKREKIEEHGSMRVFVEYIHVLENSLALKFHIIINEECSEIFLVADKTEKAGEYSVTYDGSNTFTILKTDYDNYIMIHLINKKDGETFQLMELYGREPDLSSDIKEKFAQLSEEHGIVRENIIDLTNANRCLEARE
Method: (§1) ITC titrations were performed at 25 ± 0.1 °C in 50 mM Tris HCl pH 7.4, using a MicroCal VP-ITC instrument. To a MUP solution (1.7 ml, 25 µM) were sequentially added 25 aliquots (10 μl each) of a ligand stock solution (500 μM), with a delay of 4 min after each injection with continuous stirring of the solution (at 307 r.p.m.) in the sample cell. Before analysis, protein samples were dialyzed overnight in the same buffer, using a Slide-A-Lyzer (3.5-kDa cutoff) from ThermoFisher Scientific (Waltham, MA, USA), and thoroughly degassed. The heat of dilution was determined in control experiments by injecting aliquots (10 µl) of a ligand stock solution (500 µM) into buffer and this was subtracted from the integrated binding isotherm prior to curve fitting. Each injection generated a heat-burst curve (μcal s^−1) versus time (min). The area under each peak was determined by integration using Origin 7.5 software (Microcal, Inc.) to give the heat associated with the injection. The heat exchanged per mole of injectant was plotted against the ligand:protein molar ratio. The binding constants (Ka) and stoichiometry (N) parameters of the binding process were obtained by fitting the integrated heats of binding to the one-site binding model using the MicroCal ITC Data Analysis software.

MUP20 mutant Y103R = target: T2, MUP20 mutant Y103R (Mus musculus, UniProt Q5FW60, Y103R); experiment: Isothermal titration calorimetry, MUP20 Y103R; format: binding; settings: 25 °C, 50 mM Tris HCl pH 7.4
T2 construct: 6xHis (N); made in house; host or cells: E. coli BL21(DE3), pET5b
T2 sequence (Q5FW60 20-181 Y103R): T1 sequence (Q5FW60 20-181) with Y84R
Method: as §1

MUP20L124V [2] = target: T3, MUP20L124V (Mus musculus, UniProt Q5FW60, L124V); set-up: method as in Scorsone et al., IEEE Sensors Journal 2016, 16, 6543, Tab. 1; settings: ref Scorsone et al., IEEE Sensors Journal 2016, 16, 6543, Tab. 1; read-out: Kd, L124V (starred value); cited from earlier work
T3 construct: 6xHis (N); made in house; host or cells: E. coli BL21(DE3), pET5b
T3 sequence (Q5FW60 20-181 L124V): T1 sequence (Q5FW60 20-181) with L105V

MUP20 mutant L124V = target: T4, MUP20 mutant L124V (Mus musculus, UniProt Q5FW60, L124V); experiment: Isothermal titration calorimetry, MUP20 L124V; format: binding; settings: for Drop of affinity of L124V compared to wild-type MUP20 (ITC): decrease in affinity; for Kd: one-site binding model, 25 °C, 50 mM Tris HCl pH 7.4, read-out: Equilibrium dissociation constant Kd (ITC), L124V
T4 construct: 6xHis (N); made in house; host or cells: E. coli BL21(DE3), pET5b
T4 sequence (Q5FW60 20-181 L124V): T1 sequence (Q5FW60 20-181) with L105V
Method: as §1

wild type MUP20 [3] = target: T1, wild type MUP20; set-up: method as in Scorsone et al., IEEE Sensors Journal 2016, 16, 6543, Tab. 1; settings: ref Scorsone et al., IEEE Sensors Journal 2016, 16, 6543, Tab. 1; read-out: Kd, WT (starred value); cited from earlier work
MUP20E137K = target: T5, MUP20E137K (Mus musculus, UniProt Q5FW60, E137K); experiment: Fluorescence competitive binding assay with 1-NPN, MUP20 E137K
T5 construct: 6xHis (N); made in house; host or cells: E. coli BL21(DE3), pET5b
T5 sequence (Q5FW60 20-181 E137K): T1 sequence (Q5FW60 20-181) with E118K
Method: (§2) Fluorescence competitive binding assays: Fluorescence-competitive binding assays were carried out using the fluorescent probe N-phenyl-1-naphthylamine (1-NPN), as described[39],[40]. A binding curve was constructed and the dissociation constant of the probe (KD) was calculated.
(§3) The binding analyses assumed that the protein had 100% activity and that the stoichiometry of binding was 1:1 at saturation. The affinity of various volatile ligands was measured in competitive binding assays.
(§4) The change in fluorescence was recorded after adding increasing concentrations of ligand. Competitor concentrations causing a decay of fluorescence to half-maximal intensity were determined as IC50 and the dissociation constant for the test ligands (expressed as Kd) was calculated using the following formula:1 Kd=[IC50]/1+[Probe]/KD where [Probe] is the free concentration of the fluorescent probe and KD is the dissociation constant of the complex Protein/Probe.

MUP20L88Q [4] = target: T6, MUP20L88Q (Mus musculus, UniProt Q5FW60, L88Q); set-up: method as in Scorsone et al., IEEE Sensors Journal 2016, 16, 6543, Tab. 1; settings: ref Scorsone et al., IEEE Sensors Journal 2016, 16, 6543, Tab. 1; read-out: Kd, L88Q (starred value); cited from earlier work
T6 construct: 6xHis (N); made in house; host or cells: E. coli BL21(DE3), pET5b
T6 sequence (Q5FW60 20-181 L88Q): T1 sequence (Q5FW60 20-181) with L69Q

MUP20Y103D [5] = target: T7, MUP20Y103D (Mus musculus, UniProt Q5FW60, Y103D); set-up: method as in Scorsone et al., IEEE Sensors Journal 2016, 16, 6543, Tab. 1; settings: ref Scorsone et al., IEEE Sensors Journal 2016, 16, 6543, Tab. 1; read-out: Kd, Y103D (starred value); cited from earlier work
T7 construct: 6xHis (N); made in house; host or cells: E. coli BL21(DE3), pET5b
T7 sequence (Q5FW60 20-181 Y103D): T1 sequence (Q5FW60 20-181) with Y84D

MUP20V59T = target: T8, MUP20V59T (Mus musculus, UniProt Q5FW60, V59T); experiment: Fluorescence competitive binding assay with 1-NPN, MUP20 V59T
T8 construct: 6xHis (N); made in house; host or cells: E. coli BL21(DE3), pET5b
T8 sequence (Q5FW60 20-181 V59T): T1 sequence (Q5FW60 20-181) with V40T
Method: as §2, §3, §4

MUP20N107L = target: T9, MUP20N107L (Mus musculus, UniProt Q5FW60, N107L); experiment: Fluorescence competitive binding assay with 1-NPN, MUP20 N107L
T9 construct: 6xHis (N); made in house; host or cells: E. coli BL21(DE3), pET5b
T9 sequence (Q5FW60 20-181 N107L): T1 sequence (Q5FW60 20-181) with N88L
Method: as §2, §3, §4

MUP20 mutant L88Q = target: T10, MUP20 mutant L88Q (Mus musculus, UniProt Q5FW60, L88Q); experiment: Isothermal titration calorimetry, MUP20 L88Q; format: binding; settings: for Kd: one-site binding model, 25 °C, 50 mM Tris HCl pH 7.4, read-out: Equilibrium dissociation constant Kd (ITC), L88Q
T10 construct: 6xHis (N); made in house; host or cells: E. coli BL21(DE3), pET5b
T10 sequence (Q5FW60 20-181 L88Q): T1 sequence (Q5FW60 20-181) with L69Q
Method: as §1

MUP20L88Q [6] = target: T6, MUP20L88Q; experiment: Fluorescence competitive binding assay with 1-NPN, MUP20 L88Q; settings: 1-NPN displacement, 50 mM Tris-HCl pH 7.4, 25 °C
Method: as §2
The affinity of various volatile ligands was measured in competitive binding assays.
as §4

MUP20Y103R = target: T11, MUP20Y103R (Mus musculus, UniProt Q5FW60, Y103R); experiment: Fluorescence competitive binding assay with 1-NPN, MUP20 Y103R
T11 construct: 6xHis (N); made in house; host or cells: E. coli BL21(DE3), pET5b
T11 sequence (Q5FW60 20-181 Y103R): T1 sequence (Q5FW60 20-181) with Y84R
Method: as §2, §3, §4

wild type MUP20 [7] = target: T1, wild type MUP20; experiment: Fluorescence competitive binding assay with 1-NPN, wild type MUP20; settings: 1-NPN displacement, 50 mM Tris-HCl pH 7.4, 25 °C
Method: as §2, §3, §4

MUP20L124V [8] = target: T3, MUP20L124V; experiment: Fluorescence competitive binding assay with 1-NPN, MUP20 L124V
Method: as §2, §3, §4

MUP20Y103D [9] = target: T7, MUP20Y103D; experiment: Fluorescence competitive binding assay with 1-NPN, MUP20 Y103D
Method: as §2, §3, §4

[10] = 1-NPN displacement, 50 mM Tris-HCl pH 7.4, 25 °C, read-out: Measured Kd, E137K
[11] = 1-NPN displacement, 50 mM Tris-HCl pH 7.4, 25 °C, read-out: Measured Kd, V59T
[12] = 1-NPN displacement, 50 mM Tris-HCl pH 7.4, 25 °C, read-out: Measured Kd, N107L
[13] = 1-NPN displacement, 50 mM Tris-HCl pH 7.4, 25 °C, read-out: Measured Kd, Y103R
[14] = 1-NPN displacement, 50 mM Tris-HCl pH 7.4, 25 °C, read-out: Measured Kd, L124V
[15] = 1-NPN displacement, 50 mM Tris-HCl pH 7.4, 25 °C, read-out: Measured Kd, Y103D

SMILES	Kd (wild type MUP20 [1]) [µM]	Binding strength to Y103R mutant (ITC) (MUP20 mutant Y103R)	Drop of affinity of L124V compared to wild-type MUP20 (ITC) (MUP20 mutant L124V) [fold]	Kd (MUP20 mutant L124V) [µM]	Kd (MUP20E137K; [10]) [µM]	Kd (MUP20V59T; [11]) [µM]	Kd (MUP20N107L; [12]) [µM]	Kd (MUP20 mutant L88Q) [µM]	Kd (MUP20L88Q [6]; read-out: Measured Kd, L88Q)	Kd (MUP20Y103R; [13]) [µM]	Kd (wild type MUP20 [7]; read-out: Measured Kd, WT)	Kd (MUP20L124V [8]; [14]) [µM]	Kd (MUP20Y103D [9]; [15]) [µM]	also measured
CC1=CC(=O)c2ccccc2C1=O [MEN, methylnapthalene-1,4-dione]	76 ± 19	barely detectable	25	1900 ± 100	2.14	1.85	1.23	13 ± 6	–	–	–	–	–	Kd (MUP20L124V [2]): 0.07 µM; Kd (wild type MUP20 [3]): 0.61 µM; Kd (MUP20L88Q [4]): 1.31 µM; Kd (MUP20Y103D [5]): 0.82 µM
Cc1ccc(O)c(C)c1 [2,4-DMP, 2,4-dimethylphenol]	–	–	–	–	–	–	–	–	–	–	–	–	–	Kd (MUP20L88Q [6]; Measured Kd, L88Q): 5.08 µM; Kd (MUP20Y103R): 11.9 µM; Kd (MUP20E137K): 4.05 µM; Kd (wild type MUP20 [7]; Measured Kd, WT): 4.24 µM; Kd (MUP20L124V [8]): 1.3 µM; Kd (MUP20V59T): 1.44 µM; Kd (MUP20Y103D [9]): 4.68 µM; Kd (MUP20N107L): 1.99 µM
CCCCCCC(CO)CCCC (stereo not drawn) [OCT, 2-butyl-1-octanol]	–	–	–	–	3.2	1.54	2.67	–	1.45 µM	1.88	0.78 µM	0.36	0.92	–

The remaining compounds from weak to strong by Kd (MUP20E137K; [10]), led by results:

Kd (wild type MUP20 [1]) [µM]	Binding strength to Y103R mutant (ITC) (MUP20 mutant Y103R)	Drop of affinity of L124V compared to wild-type MUP20 (ITC) (MUP20 mutant L124V) [fold]	Kd (MUP20 mutant L124V) [µM]	Kd (MUP20E137K; [10]) [µM]	Kd (MUP20V59T; [11]) [µM]	Kd (MUP20N107L; [12]) [µM]	Kd (MUP20 mutant L88Q) [µM]	Kd (MUP20L88Q [6]; read-out: Measured Kd, L88Q)	Kd (MUP20Y103R; [13]) [µM]	Kd (wild type MUP20 [7]; read-out: Measured Kd, WT)	Kd (MUP20L124V [8]; [14]) [µM]	Kd (MUP20Y103D [9]; [15]) [µM]	SMILES	also measured
–	–	–	–	1.85	1.6	1.37	–	2.21 µM	5.93	2.82 µM	0.29	2.17	C=CC(C)(O)CCC=C(C)C (stereo not drawn) [LIN, 3,7-dimethylocta-1,6-dien-3-ol]	–
1.6	barely detectable	1300	2100 ± 200	1.52	1.93	1.4	2.4	1.39 µM and 1.4 µM	0.74	1.29 µM and 1.3 µM	0.07	0.84	COc1nccnc1CC(C)C [PYR, 2-isobutyl-3-methoxypyrazine]	Affinity for wild type MUP20 relative to MEN (ITC) (wild type MUP20 [1]; higher affinity than MEN): > 40 fold; Change of affinity of L88Q compared to wild-type MUP20 (ITC) (MUP20 mutant L88Q; number = increase in affinity): did not appreciably affect; also recorded: does not alter
